Measured values published in patent US5607937A, “Piperazides of substituted phenylalanine derivatives as thrombin inhibitors” (priority 1993, dated 1997).

How the values were obtained:
[1] = system: stasis-induced venous thrombosis in the rat; assay: antithrombotic efficacy, stasis-induced venous thrombosis model (Wessler); format: in vivo; conditions: for Thrombus scale 0 (vein segments): 0=liquid blood; for Thrombus scale 1 (vein segments): 1=one or several small thrombi; for Thrombus scale 2 (vein segments): 2=not fully closed vascular segment; for Thrombus scale 3 (vein segments): 3=fully closed vascular segment
Protocol: The antithrombotic activity of the compounds was determined in the rat on the model of the stasis-induced thrombosis according to Wessler et al. (J. Appl. Physiol. 14, 943-946, 1959). The thrombus was induced by serum 30 min after application of the inhibitor and macroscopically evaluated after 10 further min.
After rectal application, the compounds of the present invention are absorbed to an extent leading to antithrombotically active plasma levels. This has been shown with the model of the stasis-induced venous thrombosis in the rat according to Wessler et al. This method consisted in macroscopically evaluating thrombi induced by serum in jugular vein segments by means of a scale (0=liquid blood, 1=one or several small thrombi, 2=not fully closed vascular segment, 3=fully closed vascular segment). The antithrombotic effect is clearly dose-dependent.
The relative thrombus scale is the quotient of the mean thrombus size of the treated group (e.g. the mean value at 5 mg/kg is 1.2) and the mean thrombus size of the control group (2.9).

thrombin = thrombin (Bos taurus, UniProt P00735)
[2] = system: coagulation in human plasma; assay: activated partial thromboplastin time (aPTT) in human plasma

SMILES: CC(=O)N1CCN(C(=O)[C@H](Cc2cccc(C(=N)N)c2)NS(=O)(=O)c2ccc3ccccc3c2)CC1.Cl [Compound 2, Nα-(2-naphthylsulfonyl)-(L)-3-amidinophenylalanine-4-acetylpiperazide hydrochloride]
- Thrombus scale 0 (vein segments) ([1]; rectal 5 mg/kg): 0
- Thrombus scale 1 (vein segments) ([1]; rectal 5 mg/kg): 8
- Thrombus scale 2 (vein segments) ([1]; rectal 5 mg/kg): 2
- Thrombus scale 3 (vein segments) ([1]; rectal 5 mg/kg): 0
- mean thrombus size of the treated group ([1]; rectal 5 mg/kg, scale 0-3, control 2.9): 1.2
- Thrombus scale 0 (vein segments) ([1]; rectal 20 mg/kg): 6
- Thrombus scale 1 (vein segments) ([1]; rectal 20 mg/kg): 1
- Thrombus scale 2 (vein segments) ([1]; rectal 20 mg/kg): 0
- Thrombus scale 3 (vein segments) ([1]; rectal 20 mg/kg): 0
- Thrombus scale 0 (vein segments) ([1]; rectal 100 mg/kg): 6
- Thrombus scale 1 (vein segments) ([1]; rectal 100 mg/kg): 0
- Thrombus scale 2 (vein segments) ([1]; rectal 100 mg/kg): 0
- Thrombus scale 3 (vein segments) ([1]; rectal 100 mg/kg): 0
- thrombin inhibition in words (thrombin): potent thrombin inhibitor
- Concentr. to double the aPTT [2]: 0.36 µmol/L
- concentration to double the aPTT [2]: ≤ 1 μmol/1
